{"source": "ChEMBL document CHEMBL4507272", "about": "(2021)", "key": {"[1]": {"target": "Serine/threonine-protein kinase PknB (Mycobacterium tuberculosis) (UniProt P9WI81)", "conditions": "Compound concentration 1000.0 nM"}, "[2]": {"target": "Phosphorylase b kinase regulatory subunit alpha, liver isoform (Homo sapiens) (UniProt P46019)", "conditions": "Compound concentration 1000.0 nM"}, "[3]": {"target": "Serine/threonine-protein kinase Chk1 (Homo sapiens) (UniProt O14757)", "conditions": "Compound concentration 1000.0 nM"}, "[4]": {"target": "Ephrin type-A receptor 1 (Homo sapiens) (UniProt P21709)", "conditions": "Compound concentration 1000.0 nM"}, "[5]": {"target": "Tyrosine-protein kinase Fer (Homo sapiens) (UniProt P16591)", "conditions": "Compound concentration 1000.0 nM"}, "[6]": {"target": "Alpha-1B adrenergic receptor (Homo sapiens) (UniProt P35368)", "conditions": "Compound concentration 10.0 uM"}, "[7]": {"target": "Beta-1 adrenergic receptor (Homo sapiens, UniProt P08588)", "sequence (P08588 whole entry)": "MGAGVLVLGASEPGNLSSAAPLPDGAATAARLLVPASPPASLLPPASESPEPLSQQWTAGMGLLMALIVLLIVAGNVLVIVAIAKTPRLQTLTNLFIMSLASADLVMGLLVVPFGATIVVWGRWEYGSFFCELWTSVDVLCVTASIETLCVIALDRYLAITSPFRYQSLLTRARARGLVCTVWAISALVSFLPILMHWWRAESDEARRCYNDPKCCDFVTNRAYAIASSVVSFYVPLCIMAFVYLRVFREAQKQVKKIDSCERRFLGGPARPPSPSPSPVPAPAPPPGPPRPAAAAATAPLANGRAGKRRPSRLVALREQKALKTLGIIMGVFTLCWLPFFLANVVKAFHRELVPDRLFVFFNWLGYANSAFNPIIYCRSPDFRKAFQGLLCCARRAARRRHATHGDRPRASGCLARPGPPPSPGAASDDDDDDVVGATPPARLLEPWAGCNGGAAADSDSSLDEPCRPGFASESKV", "assay": "GPCRScan assay: inhibition of Beta1", "parameters": "radioligand conc. used [nm] 0.1 – 0.2, parental cells CHO Flp-In"}, "[8]": {"target": "Tyrosine-protein kinase Fyn (Homo sapiens) (UniProt P06241)", "conditions": "Compound concentration 1000.0 nM"}, "[9]": {"test_system": "Phosphatidylinositol 4,5-bisphosphate 3-kinase catalytic subunit alpha isoform (Homo sapiens), P42336 [M1043I]", "conditions": "Compound concentration 1000.0 nM"}, "[10]": {"target": "Myosin-IIIb (Homo sapiens) (UniProt Q8WXR4)", "conditions": "Compound concentration 1000.0 nM"}, "[11]": {"target": "3-phosphoinositide-dependent protein kinase 1 (Homo sapiens) (UniProt O15530)", "sequence (O15530 whole entry)": "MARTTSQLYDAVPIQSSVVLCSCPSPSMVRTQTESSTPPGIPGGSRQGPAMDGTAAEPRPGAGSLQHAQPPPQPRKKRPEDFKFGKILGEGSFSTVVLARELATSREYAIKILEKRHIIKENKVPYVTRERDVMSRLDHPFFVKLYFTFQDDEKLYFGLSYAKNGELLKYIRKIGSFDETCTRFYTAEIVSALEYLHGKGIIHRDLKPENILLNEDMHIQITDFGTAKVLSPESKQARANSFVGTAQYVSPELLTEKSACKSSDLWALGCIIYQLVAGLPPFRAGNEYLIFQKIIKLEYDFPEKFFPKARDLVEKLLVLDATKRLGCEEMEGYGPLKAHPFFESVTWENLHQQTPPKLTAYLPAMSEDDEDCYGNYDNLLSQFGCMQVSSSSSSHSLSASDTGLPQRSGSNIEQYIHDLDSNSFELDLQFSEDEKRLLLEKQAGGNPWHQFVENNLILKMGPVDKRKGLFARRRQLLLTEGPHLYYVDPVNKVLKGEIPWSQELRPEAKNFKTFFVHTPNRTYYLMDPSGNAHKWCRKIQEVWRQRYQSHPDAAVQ", "conditions": "Compound concentration 1000.0 nM"}, "[12]": {"target": "Serine/threonine-protein kinase PRP4 homolog (Homo sapiens) (UniProt Q13523)", "conditions": "Compound concentration 1000.0 nM"}, "[13]": {"test_system": "Epidermal growth factor receptor (Homo sapiens), P00533 [L858R,T790M]", "conditions": "Compound concentration 1000.0 nM"}, "[14]": {"target": "Tyrosine-protein kinase JAK1 (Homo sapiens) (UniProt P23458)", "conditions": "Compound concentration 1000.0 nM"}, "[15]": {"target": "Epidermal growth factor receptor (Homo sapiens) (UniProt P00533)", "conditions": "Compound concentration 1000.0 nM"}, "[16]": {"target": "Serine/threonine-protein kinase RIO1 (Homo sapiens) (UniProt Q9BRS2)", "conditions": "Compound concentration 1000.0 nM"}, "[17]": {"target": "Sigma intracellular receptor 2 (Homo sapiens) (UniProt Q5BJF2)", "conditions": "Compound concentration 10.0 uM"}, "[18]": {"target": "Myosin-IIIa (Homo sapiens) (UniProt Q8NEV4)", "sequence (Q8NEV4 whole entry)": "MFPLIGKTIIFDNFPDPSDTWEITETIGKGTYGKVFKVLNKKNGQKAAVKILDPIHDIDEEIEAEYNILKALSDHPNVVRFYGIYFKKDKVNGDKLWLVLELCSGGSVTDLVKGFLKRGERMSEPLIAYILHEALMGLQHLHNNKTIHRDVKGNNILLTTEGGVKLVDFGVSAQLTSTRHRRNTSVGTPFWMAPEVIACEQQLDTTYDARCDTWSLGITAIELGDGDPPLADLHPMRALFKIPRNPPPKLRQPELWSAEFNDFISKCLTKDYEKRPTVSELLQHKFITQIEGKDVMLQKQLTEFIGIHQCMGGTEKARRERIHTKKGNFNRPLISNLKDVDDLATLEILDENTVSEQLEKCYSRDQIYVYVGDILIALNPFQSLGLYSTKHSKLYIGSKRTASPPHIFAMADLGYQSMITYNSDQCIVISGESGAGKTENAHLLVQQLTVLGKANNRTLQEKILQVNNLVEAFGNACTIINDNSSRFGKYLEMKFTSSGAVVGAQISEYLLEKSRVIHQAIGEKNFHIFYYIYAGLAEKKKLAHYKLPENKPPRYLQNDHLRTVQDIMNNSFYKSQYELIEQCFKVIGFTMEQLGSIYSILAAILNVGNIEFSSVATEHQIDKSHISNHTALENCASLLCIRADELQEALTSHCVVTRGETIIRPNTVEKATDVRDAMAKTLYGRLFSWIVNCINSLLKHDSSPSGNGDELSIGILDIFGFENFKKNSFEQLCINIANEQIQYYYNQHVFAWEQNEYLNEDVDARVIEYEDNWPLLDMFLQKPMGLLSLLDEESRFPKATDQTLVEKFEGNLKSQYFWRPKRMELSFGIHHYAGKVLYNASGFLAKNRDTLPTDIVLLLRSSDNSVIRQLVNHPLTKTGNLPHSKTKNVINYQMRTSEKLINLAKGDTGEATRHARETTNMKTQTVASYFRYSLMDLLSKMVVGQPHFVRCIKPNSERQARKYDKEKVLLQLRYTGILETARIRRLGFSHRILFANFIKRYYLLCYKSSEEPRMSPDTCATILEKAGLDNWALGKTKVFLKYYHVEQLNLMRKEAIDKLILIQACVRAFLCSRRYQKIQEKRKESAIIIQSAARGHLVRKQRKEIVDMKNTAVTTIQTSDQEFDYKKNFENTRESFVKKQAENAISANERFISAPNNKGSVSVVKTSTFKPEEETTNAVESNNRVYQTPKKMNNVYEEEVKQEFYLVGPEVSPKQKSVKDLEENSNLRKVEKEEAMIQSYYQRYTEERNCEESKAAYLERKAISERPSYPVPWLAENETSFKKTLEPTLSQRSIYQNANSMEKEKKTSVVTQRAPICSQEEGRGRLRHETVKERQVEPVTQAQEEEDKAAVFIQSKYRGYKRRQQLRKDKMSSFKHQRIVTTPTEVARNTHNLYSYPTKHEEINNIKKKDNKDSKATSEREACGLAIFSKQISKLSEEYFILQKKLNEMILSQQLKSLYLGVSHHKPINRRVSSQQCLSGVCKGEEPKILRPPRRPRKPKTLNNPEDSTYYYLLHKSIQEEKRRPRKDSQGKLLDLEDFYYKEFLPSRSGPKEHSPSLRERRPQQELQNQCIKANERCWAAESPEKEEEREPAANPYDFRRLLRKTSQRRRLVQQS", "conditions": "Compound concentration 1000.0 nM"}, "[19]": {"target": "Insulin receptor (Homo sapiens) (UniProt P06213)", "conditions": "Compound concentration 1000.0 nM"}, "[20]": {"test_system": "Mast/stem cell growth factor receptor Kit (Homo sapiens), P10721 [V559D]", "sequence (P10721 whole entry V559D)": "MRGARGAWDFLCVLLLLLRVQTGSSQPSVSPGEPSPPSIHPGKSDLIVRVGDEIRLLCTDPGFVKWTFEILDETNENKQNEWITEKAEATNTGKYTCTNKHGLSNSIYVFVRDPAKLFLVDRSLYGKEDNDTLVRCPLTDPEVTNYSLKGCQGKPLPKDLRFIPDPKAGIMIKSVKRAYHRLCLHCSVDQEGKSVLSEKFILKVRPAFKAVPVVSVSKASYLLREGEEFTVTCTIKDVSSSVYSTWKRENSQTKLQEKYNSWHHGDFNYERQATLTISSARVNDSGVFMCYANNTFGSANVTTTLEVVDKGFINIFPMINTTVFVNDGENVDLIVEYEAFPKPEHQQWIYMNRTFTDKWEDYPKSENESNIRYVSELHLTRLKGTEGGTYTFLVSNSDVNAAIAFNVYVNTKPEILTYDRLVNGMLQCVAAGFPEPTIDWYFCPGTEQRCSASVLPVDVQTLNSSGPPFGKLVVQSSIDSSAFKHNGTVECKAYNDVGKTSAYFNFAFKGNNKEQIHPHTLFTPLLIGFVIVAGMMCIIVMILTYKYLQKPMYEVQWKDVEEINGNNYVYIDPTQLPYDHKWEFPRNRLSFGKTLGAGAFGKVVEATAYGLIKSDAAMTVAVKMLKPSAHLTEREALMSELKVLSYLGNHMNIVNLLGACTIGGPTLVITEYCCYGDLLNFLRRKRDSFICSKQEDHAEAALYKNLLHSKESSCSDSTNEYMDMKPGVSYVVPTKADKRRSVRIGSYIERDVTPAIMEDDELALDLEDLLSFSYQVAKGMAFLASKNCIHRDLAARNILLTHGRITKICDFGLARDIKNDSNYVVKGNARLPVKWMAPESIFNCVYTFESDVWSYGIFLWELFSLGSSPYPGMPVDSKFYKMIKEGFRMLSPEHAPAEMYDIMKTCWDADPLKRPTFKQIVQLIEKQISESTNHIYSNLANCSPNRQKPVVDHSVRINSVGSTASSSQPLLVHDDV", "conditions": "Compound concentration 1000.0 nM"}, "[21]": {"target": "Macrophage colony-stimulating factor 1 receptor (Homo sapiens) (UniProt P07333)", "conditions": "Compound concentration 1000.0 nM"}, "[22]": {"target": "Dual specificity mitogen-activated protein kinase kinase 2 (Homo sapiens) (UniProt P36507)", "conditions": "Compound concentration 1000.0 nM"}, "[23]": {"target": "cAMP-dependent protein kinase catalytic subunit PRKX (Homo sapiens) (UniProt P51817)", "conditions": "Compound concentration 1000.0 nM"}, "[24]": {"target": "NUAK family SNF1-like kinase 1 (Homo sapiens) (UniProt O60285)", "conditions": "Compound concentration 1000.0 nM"}, "[25]": {"target": "Calcium/calmodulin-dependent protein kinase type 1D (Homo sapiens) (UniProt Q8IU85)", "conditions": "Compound concentration 1000.0 nM"}, "[26]": {"target": "Protein kinase C delta type (Homo sapiens) (UniProt Q05655)", "conditions": "Compound concentration 1000.0 nM"}, "[27]": {"target": "Glycogen synthase kinase-3 alpha (Homo sapiens) (UniProt P49840)", "conditions": "Compound concentration 1000.0 nM"}, "[28]": {"test_system": "ALK tyrosine kinase receptor (Homo sapiens), Q9UM73 [L1196M]", "conditions": "Compound concentration 1000.0 nM"}, "[29]": {"target": "Rhodopsin kinase GRK1 (Homo sapiens) (UniProt Q15835)", "sequence (Q15835 whole entry)": "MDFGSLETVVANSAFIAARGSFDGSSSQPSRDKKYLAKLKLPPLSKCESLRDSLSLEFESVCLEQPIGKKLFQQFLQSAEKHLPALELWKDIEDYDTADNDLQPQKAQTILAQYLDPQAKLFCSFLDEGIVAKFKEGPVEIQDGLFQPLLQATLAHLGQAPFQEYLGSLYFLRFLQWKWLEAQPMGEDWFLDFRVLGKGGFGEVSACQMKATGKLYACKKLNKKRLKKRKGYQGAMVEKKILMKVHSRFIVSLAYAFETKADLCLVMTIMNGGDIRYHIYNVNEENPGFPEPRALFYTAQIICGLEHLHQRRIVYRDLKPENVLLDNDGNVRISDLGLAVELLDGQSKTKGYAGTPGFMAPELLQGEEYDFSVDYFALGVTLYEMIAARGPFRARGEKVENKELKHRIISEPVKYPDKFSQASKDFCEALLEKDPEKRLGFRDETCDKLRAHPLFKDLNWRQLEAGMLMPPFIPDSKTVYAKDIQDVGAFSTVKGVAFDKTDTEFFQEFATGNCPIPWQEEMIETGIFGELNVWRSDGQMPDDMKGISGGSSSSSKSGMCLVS", "conditions": "Compound concentration 1000.0 nM"}, "[30]": {"target": "Serine/threonine-protein kinase 16 (Homo sapiens) (UniProt O75716)", "conditions": "Compound concentration 1000.0 nM"}, "[31]": {"target": "Serine/threonine-protein kinase tousled-like 2 (Homo sapiens) (UniProt Q86UE8)", "conditions": "Compound concentration 1000.0 nM"}, "[32]": {"test_system": "Serine/threonine-protein kinase B-raf (Homo sapiens), P15056 [V600E]", "conditions": "Compound concentration 1000.0 nM"}, "[33]": {"target": "cGMP-dependent protein kinase 1 (Homo sapiens) (UniProt Q13976)", "conditions": "Compound concentration 1000.0 nM"}, "[34]": {"target": "Dual specificity protein kinase CLK1 (Homo sapiens) (UniProt P49759)", "conditions": "Compound concentration 1000.0 nM"}, "[35]": {"test_system": "Mast/stem cell growth factor receptor Kit (Homo sapiens), P10721 [A829P]", "sequence (P10721 whole entry A829P)": "as the sequence (P10721 whole entry V559D) above, with D559V, A829P counted along it", "conditions": "Compound concentration 1000.0 nM"}, "[36]": {"target": "Casein kinase I isoform gamma-2 (Homo sapiens) (UniProt P78368)", "conditions": "Compound concentration 1000.0 nM"}, "[37]": {"target": "Mitogen-activated protein kinase 12 (Homo sapiens) (UniProt P53778)", "conditions": "Compound concentration 1000.0 nM"}, "[38]": {"test_system": "Phosphatidylinositol 4,5-bisphosphate 3-kinase catalytic subunit alpha isoform (Homo sapiens), P42336 [E542K]", "conditions": "Compound concentration 1000.0 nM"}, "[39]": {"test_system": "Receptor-type tyrosine-protein kinase FLT3 (Homo sapiens), P36888 [N841I]", "conditions": "Compound concentration 1000.0 nM"}, "[40]": {"target": "Atypical kinase COQ8A, mitochondrial (Homo sapiens) (UniProt Q8NI60)", "conditions": "Compound concentration 1000.0 nM"}, "[41]": {"target": "Phosphatidylinositol 4,5-bisphosphate 3-kinase catalytic subunit alpha isoform (Homo sapiens) (UniProt P42336)", "conditions": "Compound concentration 1000.0 nM"}, "[42]": {"target": "Mitogen-activated protein kinase 15 (Homo sapiens) (UniProt Q8TD08)", "conditions": "Compound concentration 1000.0 nM"}, "[43]": {"target": "Cyclin-dependent kinase 11B (Homo sapiens) (UniProt P21127)", "sequence (P21127 whole entry)": "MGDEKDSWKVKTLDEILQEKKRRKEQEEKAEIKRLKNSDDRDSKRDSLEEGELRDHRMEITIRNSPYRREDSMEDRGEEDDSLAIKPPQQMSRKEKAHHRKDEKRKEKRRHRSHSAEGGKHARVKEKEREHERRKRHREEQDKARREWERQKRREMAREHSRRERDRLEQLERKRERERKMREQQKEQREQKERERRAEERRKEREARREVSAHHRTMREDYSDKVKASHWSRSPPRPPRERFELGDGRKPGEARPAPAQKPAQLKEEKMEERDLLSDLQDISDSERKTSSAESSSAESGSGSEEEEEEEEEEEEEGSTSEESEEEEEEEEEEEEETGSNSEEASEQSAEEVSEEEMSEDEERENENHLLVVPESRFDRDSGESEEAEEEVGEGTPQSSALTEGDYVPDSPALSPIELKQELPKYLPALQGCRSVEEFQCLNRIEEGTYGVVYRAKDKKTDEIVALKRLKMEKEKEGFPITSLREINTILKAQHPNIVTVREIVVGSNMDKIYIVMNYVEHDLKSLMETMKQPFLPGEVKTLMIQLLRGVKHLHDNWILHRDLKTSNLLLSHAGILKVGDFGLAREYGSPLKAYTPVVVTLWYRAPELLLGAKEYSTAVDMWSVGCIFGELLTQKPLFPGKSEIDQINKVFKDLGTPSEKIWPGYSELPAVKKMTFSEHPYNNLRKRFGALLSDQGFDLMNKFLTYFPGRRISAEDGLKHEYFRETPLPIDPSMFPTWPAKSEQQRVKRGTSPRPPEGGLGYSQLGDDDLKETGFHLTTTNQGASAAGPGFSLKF", "conditions": "Compound concentration 1000.0 nM"}, "[44]": {"target": "Serine/threonine-protein kinase MARK1 (Homo sapiens) (UniProt Q9P0L2)", "conditions": "Compound concentration 1000.0 nM"}, "[45]": {"target": "Phosphatidylinositol 4-phosphate 3-kinase C2 domain-containing subunit beta (Homo sapiens) (UniProt O00750)", "conditions": "Compound concentration 1000.0 nM"}}}
{"smiles": "CC(=O)C1=C(C)N(c2cccc(C(F)(F)F)c2)C(=O)N[C@@H]1c1ccc(C#N)nc1", "note": "[BAY-678]", "values": [{"measurement": "residual activity", "setting": "[1]", "result": 82.7, "unit": "%"}, {"measurement": "residual activity", "setting": "[2]", "result": 80.8, "unit": "%"}, {"measurement": "residual activity", "setting": "[3]", "result": 73.2, "unit": "%"}, {"measurement": "residual activity", "setting": "[4]", "result": 100, "unit": "%"}, {"measurement": "residual activity", "setting": "[5]", "result": 96.9, "unit": "%"}, {"measurement": "inhibition", "setting": "[6]", "result": -1.17, "unit": "%"}, {"measurement": "Ki", "setting": "[7]; read-out: Ki", "result": 5.45, "unit": "µM"}, {"measurement": "Ki", "setting": "[7]; read-out: pKi (converted)", "result": 5.01, "unit": "µM"}, {"measurement": "residual activity", "setting": "[8]", "result": 100, "unit": "%"}, {"measurement": "residual activity", "setting": "[9]", "result": 100, "unit": "%"}, {"measurement": "residual activity", "setting": "[10]", "result": 78.3, "unit": "%"}, {"measurement": "residual activity", "setting": "[11]", "result": 93.4, "unit": "%"}, {"measurement": "residual activity", "setting": "[12]", "result": 100, "unit": "%"}, {"measurement": "residual activity", "setting": "[13]", "result": 100, "unit": "%"}, {"measurement": "residual activity", "setting": "[14]", "result": 85.9, "unit": "%"}, {"measurement": "residual activity", "setting": "[15]", "result": 78.2, "unit": "%"}, {"measurement": "residual activity", "setting": "[16]", "result": 87.5, "unit": "%"}, {"measurement": "inhibition", "setting": "[17]", "result": 35.9, "unit": "%"}, {"measurement": "residual activity", "setting": "[18]", "result": 85.1, "unit": "%"}, {"measurement": "residual activity", "setting": "[19]", "result": 89.3, "unit": "%"}, {"measurement": "residual activity", "setting": "[20]", "result": 100, "unit": "%"}, {"measurement": "residual activity", "setting": "[21]", "result": 99.4, "unit": "%"}, {"measurement": "residual activity", "setting": "[22]", "result": 84.2, "unit": "%"}, {"measurement": "residual activity", "setting": "[23]", "result": 100, "unit": "%"}, {"measurement": "residual activity", "setting": "[24]", "result": 93.2, "unit": "%"}, {"measurement": "residual activity", "setting": "[25]", "result": 79.4, "unit": "%"}, {"measurement": "residual activity", "setting": "[26]", "result": 100, "unit": "%"}, {"measurement": "residual activity", "setting": "[27]", "result": 95, "unit": "%"}, {"measurement": "residual activity", "setting": "[28]", "result": 94.1, "unit": "%"}, {"measurement": "residual activity", "setting": "[29]", "result": 99.2, "unit": "%"}, {"measurement": "residual activity", "setting": "[30]", "result": 84.6, "unit": "%"}, {"measurement": "residual activity", "setting": "[31]", "result": 100, "unit": "%"}, {"measurement": "residual activity", "setting": "[32]", "result": 100, "unit": "%"}, {"measurement": "residual activity", "setting": "[33]", "result": 45.5, "unit": "%"}, {"measurement": "residual activity", "setting": "[34]", "result": 100, "unit": "%"}, {"measurement": "residual activity", "setting": "[35]", "result": 80.8, "unit": "%"}, {"measurement": "residual activity", "setting": "[36]", "result": 94.6, "unit": "%"}, {"measurement": "residual activity", "setting": "[37]", "result": 77.4, "unit": "%"}, {"measurement": "residual activity", "setting": "[38]", "result": 100, "unit": "%"}, {"measurement": "residual activity", "setting": "[39]", "result": 73.8, "unit": "%"}, {"measurement": "residual activity", "setting": "[40]", "result": 100, "unit": "%"}, {"measurement": "residual activity", "setting": "[41]", "result": 100, "unit": "%"}, {"measurement": "residual activity", "setting": "[42]", "result": 100, "unit": "%"}, {"measurement": "residual activity", "setting": "[43]", "result": 100, "unit": "%"}, {"measurement": "residual activity", "setting": "[44]", "result": 100, "unit": "%"}, {"measurement": "residual activity", "setting": "[45]", "result": 100, "unit": "%"}]}
